We go through three compounds from paper PMC8000084, “Peptide Dendrimers with Non-Symmetric Bola Structure Exert Long Term Effect on Glioblastoma and Neuroblastoma Cell Lines” (Biomolecules, 2021).

For experiment [1] the following is noted: 5.5 μM; cited from earlier work. The protocol: The results of DPPH and ABTS tests for the (+)10-charged 16, 18, 20, 22, 24, and 26 bola dendrimers at three concentrations (3.78, 7.69, and 15.38 μM) are shown in Figure 5, whereas results of FRAP and CUPRAC tests are shown in Figure 6. Data include also two neutral derivatives 19 and 25 for the PABA and PAS series, respectively. Considering TEAC values, dendrimers show different level of scavenging capacity in both tests, being better scavengers of radical cations than single electron bearing neutral radicals. The highest cationic radical scavenging ability in ABTS test was found for […] ...

Experiment [2] in a line: Cupric reducing antioxidant capacity (CUPRAC). The method, then: The CUPRAC method was performed according to procedure described by Apak et al. with small modifications, which was necessary to correlate this method to other used assays. CUPRAC working solution was prepared freshly each time. The stock solution including 0.96 mL ammonium acetate buffer (1 M, pH 7), 0.96 mL 7.5 mM neocuproine solution in MeOH, and 0.96 mL of 10 mM CuCl2 in water was kept away from light. Then, 240 μL dendrimer, Trolox, or solvent (blank sample) standard solution was added to CUPRAC stock solution, and after 25 min, absorbance at 450 nm was recorded. Results were expressed as μM Trolox L^−1. All determinations were carried out in triplicate.

Experiment [3] concerns rat primary cerebellar granule cells (CGC). The format is cell-based. The conditions noted are these: 5 μM, 30 min exposure in Locke 25, PI staining 24 h later; Figure 3. The protocol:
Primary CGC cultures were prepared from seven-day-old Wistar rats of both sexes as previously described. Procedures using rat pups were performed in accordance with international standards of animal care guidelines and were approved by the Local Care of Experimental Animals Committee. The culture was incubated in growth basal Eagle’s medium (Gibco, Thermo Fisher Scientific, Grand Island, NY, USA), supplemented with 10% fetal calf serum, 25 mM KCl, 4 mM glutamine, penicillin (50 U/mL), and streptomycin ([…]) (Sigma-Aldrich, Poznan, Poland). The density of the cell suspension seeded on the 24-well plates, coated with poly-L-lysine, was 1 × 10^6 cells per well. […]
Stock solutions were prepared by dissolving dendrimers in dimethylsulfoxide (DMSO) (Sigma-Aldrich, Poznan, Poland), and subsequent dilutions were made in cell medium. The effect of the dendrimers on CGC viability was assessed 24 h after a 30 min exposure of the cultures to the tested compounds using propidium iodide (PI) staining. […] Then, the cells were fixed with 80% methanol, stained with PI (0.5 µg/mL), and viable and dead neurons were counted using an Axiovert fluorescence microscope (Carl Zeiss AG, Germany). The viability of the neurons was determined as percentages of live cells in proportion to all cells.

Experiment [4] can be described thus: Ferric reducing antioxidant power (FRAP). The settings on record: pH 3.6, 593 nm after 15 min; Figure 6. The method, then:
The FRAP assay was performed according to previously described method with some modifications. FRAP working solution was prepared freshly each time. The stock solution included 2.40 mL acetate buffer (300mM, pH 3.6), 0.24 mL 10 mM TPTZ solution in 40 mM HCl, and 0.24 mL of 20 mM FeCl3 × 6H2O in water. The mixture was kept away from light and warmed at 37 °C before using. Then, 240 μL sample Troloxor solvent (blank sample) standard solution was added to FRAP stock solution. The absorbance was measured at 593 nm after 15 min. Final concentration of methanolic solutions of the studied dendrimers were in range 0–24 μM and Trolox® solutions from 0 to 50 μM.All determinations were carried out in triplicate.

`O=C(O)/C=C/c1ccc(O)c(O)c1` [caffeic acid]: the “Trolox equivalence in DPPH test” value in experiment [1] is 6–7.

In the case of `Nc1ccc(S(=O)(=O)NCCCCCOc2cc(OCCNS(=O)(=O)c3ccc(N)cc3)cc(C(=O)NCCNC(=O)[C@H](Cc3c[nH]c4ccccc34)NC(=O)[C@H](CCCCNC(=O)c3cc(OCCNC(=O)[C@@H](N)CCCCNC(=O)[C@@H](N)Cc4c[nH]c5ccccc45)cc(OCCNC(=O)[C@@H](N)CCCCNC(=O)[C@@H](N)Cc4c[nH]c5ccccc45)c3)NC(=O)c3cc(OCCNC(=O)[C@@H](N)CCCCNC(=O)[C@@H](N)Cc4c[nH]c5ccccc45)cc(OCCNC(=O)[C@@H](N)CCCCNC(=O)[C@@H](N)Cc4c[nH]c5ccccc45)c3)c2)cc1` [compound 26], in experiment [2] (3.78 and 7.69 μM), the “enhancement of antioxidant power in transition between FRAP/CUPRAC model” value is ~11 fold. Also, the “viable CGC cells conserved” value in experiment [3] was 55–85%.

Take `Nc1ccc(S(=O)(=O)O)cc1` [p-aminobenzenesulfonic acid]: in experiment [2] (pH 7, 450 nm after 25 min, Figure 6), the “redox potential / reducing capacity in CUPRAC test (in words)” value was “insignificant”. Moreover, the “redox potential / reducing capacity in FRAP test (in words)” value in experiment [4] is listed as “insignificant”.
